From patent US20150004100A1, “HETEROCYCLIC COMPOUNDS AS IMAGING PROBES OF TAU PATHOLOGY” (GE HEALTHCARE LIMITED, priority 2011, published 2015)

Key:
tau+ NFTs [1] = experiment: Tissue binding assay (fluorescence), NFTs in human AD tissue sections; set-up: key to NFTs (staining): −: No staining; +: weak staining; ++: moderate staining; +++: intense staining; settings: 100 μM, human AD tissue
Experimental: (§1) Human brain tissue samples from the entorhinal cortex of patients with Alzheimer's disease (AD) and healthy controls were obtained from Tissue Solutions (Tissue Solutions Ltd, Glasgow, UK). Tissue samples were collected after informed written consent, and specimens were dissected at the tissue bank and snap-frozen for cryopreservation at a time interval of between 3 and 18 h after death. The frozen tissue was embedded in TissueTek® (VWR) and sectioned using a Microm HM560 cryostat (Thermo Scientific). Serial 12 μm sections were mounted onto SuperFrost®+ glass slides (VWR) and stored a −70° C.
(§2) The binding of compounds to tau+NFTs and Aβ+ plaques in human AD tissue were evaluated based on fluorescence.
(§3) Briefly, tissue sections were defrosted and fixed in ice-cold 70% ethanol. All tissue sections were rinsed with PBS after fixation and between all subsequent incubation steps. To quench autofluorescence, tissue sections were incubated first with 0.25% KMnO4 (Sigma-Aldrich) in PBS for 12 min, and then with 0.1% […]/0.1% oxalic acid (both reagents from Sigma-Aldrich) in PBS for 1 min. The tissue sections were blocked with 2% BSA in PBS for 10 min, and then incubated with the test compounds at 100 μM concentration for 1 h at RT. […] Finally the tissue sections were rinsed in PBS, and mounted in SlowFade® mounting media (Invitrogen). Images of labelled tissue sections were captured using a Nikon digital camera connected to a Leica microscope and using the NIS Elements D software (Nikon). Images were further processed with the Photoshop® software (Adobe).

[2] = Protein binding assay, rat brain homogenates (rapid equilibrium dialysis); assay type: in vitro ADME; settings: rat brain homogenate, % bound, criterion <99%
Experimental: (§4) The protein binding assays provide an estimate of free (unbound) fraction of the compound in the blood or brain in vivo. […] The desirable criterion for this assay is <99% of test compound bound.
(§5) Test compounds were first dissolved in DMSO to a concentration of 50 μM. This was followed by incubation in samples of human plasma and rat brain homogenates (final test concentration 1 μM). Binding of compounds to proteins was determined in the samples by rapid equilibrium dialysis after 5 and 30 min of incubation.

tau+ NFTs [3] = experiment: Tissue binding assay (fluorescence), NFTs in human AD tissue sections; set-up: key to NFTs (staining): −: No staining; +: weak staining; ++: moderate staining; +++: intense staining; settings: Table 2, human AD tissue
Aβ+ plaques [4] = experiment: Tissue binding assay (fluorescence), plaques in human AD tissue sections; set-up: key to Plaques (staining): −: No staining; +: weak staining; ++: moderate staining; +++: intense staining; settings: Table 2, human AD tissue
rat liver microsomes = experiment: Liver microsome stability assay, rat; assay type: in vitro ADME; settings: 1 μM, 37° C., parent compound remaining, criterion >50%
Experimental: (§6) The liver microsome stability assay provides an estimate of compound stability and rate of metabolism in vivo. The desirable criterion for this assay is >50% parent compound after 30 min.
(§7) A 1 μM compound solution was incubated with rat or human liver microsomes (20 mg/ml) at 37° C. and the amount of parent compound remaining following the incubation was determined after 5 and 30 min of incubation using LC-MS.

Aβ+ plaques [5] = experiment: Tissue binding assay (fluorescence), plaques in human AD tissue sections; set-up: key to Plaques (staining): −: No staining; +: weak staining; ++: moderate staining; +++: intense staining; settings: 100 μM, human AD tissue
Experimental: as §1, §2, §3

[6] = Protein binding assay, human plasma (rapid equilibrium dialysis); assay type: in vitro ADME; settings: % bound, criterion <99%
Experimental: as §4, §5

human liver microsomes = experiment: Liver microsome stability assay, human; assay type: in vitro ADME; settings: 1 μM, 37° C., parent compound remaining, criterion >50%
Experimental: as §6, §7

[7] = PAMPA (parallel artificial membrane permeability assay); assay type: in vitro ADME; settings: 10 μM, 5 h at RT; criterion >−6
Experimental: The PAMPA assay is used to determine how well a compound crosses a cell membrane by measuring its passage through a phosphotidyl choline barrier. A permeability coefficient >−6 indicates high permeability across lipid membranes and is indicative of a compounds ability to cross the blood brain barrier.
A 10 μM solution was incubated on a PDVF membrane coated with a 2% phoshotidyl choline solution for 5 h at RT. Membrane penetration was measured using LC-MS.

SMILES	fraction unbound at 1 μM [2]	Liver stability Rat (% PCP) 5 min (rat liver microsomes)	Liver stability Rat (% PCP) 30 min (rat liver microsomes)	fraction unbound at 1 μM [6]	Liver stability Human (% PCP) 5 min (human liver microsomes)	Liver stability Human (% PCP) 30 min (human liver microsomes)	PAMPA Log Pe [7]	NFTs (staining) (tau+ NFTs [1]; Table 3)	Plaques (staining) (Aβ+ plaques [5]; Table 3)	further results
CC(C)NC(=O)c1nn(-c2ccc(O)cc2)c(=O)c2c(N)scc12 [Compound 58]	0.506	90.03 % PCP	79.3 % PCP	0.068	100.9 % PCP	83.4 % PCP	−7.52			
CC(C)NC(=O)c1nn(-c2ccc(OCC(O)CF)cc2)c(=O)c2c(N)scc12 (stereo not shown) [Compound 59]										NFTs (staining) (tau+ NFTs [1]; Table 4): −; Plaques (staining) (Aβ+ plaques [5]; Table 4): −
CC(C)NC(=O)c1nn(-c2ccc(OCCCF)cc2)c(=O)c2c(N)scc12 [Compound 61]										NFTs (staining) (tau+ NFTs [1]; Table 4): −; Plaques (staining) (Aβ+ plaques [5]; Table 4): −
CC(C)NC(=O)c1nn(-c2ccc(O)cc2)c(=O)c2c(NC(=O)OC(C)(C)C)scc12 [Compound 63]										NFTs (staining) (tau+ NFTs [1]; Table 2): −
CC(C)NC(=O)c1nn(-c2ccc(OCCF)cc2)c(=O)c2c(NC(=O)OC(C)(C)C)scc12 [Compound 64]								−	−	

The next lines start with results.

fraction unbound at 1 μM [2]	Liver stability Rat (% PCP) 5 min (rat liver microsomes)	Liver stability Rat (% PCP) 30 min (rat liver microsomes)	fraction unbound at 1 μM [6]	Liver stability Human (% PCP) 5 min (human liver microsomes)	Liver stability Human (% PCP) 30 min (human liver microsomes)	PAMPA Log Pe [7]	NFTs (staining) (tau+ NFTs [1]; Table 3)	Plaques (staining) (Aβ+ plaques [5]; Table 3)	SMILES	further results
0.383	92.8 % PCP	64.0 % PCP	0.0522	92.1 % PCP	61.3 % PCP	−4.89			CC(C)NC(=O)c1nn(-c2ccc(F)cc2)c(=O)c2c(N)scc12 [Compound 14]	NFTs (staining) (tau+ NFTs [1]; Table 2): +; NFTs (staining) (tau+ NFTs [3]; 1 μM): −; NFTs (staining) (tau+ NFTs [3]; 10 μM): −; Plaques (staining) (Aβ+ plaques [4]; 1 μM): −; Plaques (staining) (Aβ+ plaques [4]; 10 μM): −; Plaques (staining) (Aβ+ plaques [5]; Table 2): +
0.448	94.88 % PCP	92.06 % PCP	0.0372	80.98 % PCP	52.10 % PCP	−5.16	−	−	COc1ccc(-n2nc(C(=O)N3CCC(CCF)CC3)c3csc(N)c3c2=O)cc1 [Compound 56]	
							−	−	COc1ccc(-n2nc(C(=O)N3CCN(c4ccc(F)nc4)CC3)c3csc(N)c3c2=O)cc1 [Compound 67]	
0.589	60.12 % PCP	32.54 % PCP	0.0498	91.63 % PCP	73.10 % PCP	−5.12		−	COc1ccc(-n2nc(C(=O)N3CCC(CF)CC3)c3csc(N)c3c2=O)cc1.Cl [Compound 81]	
